Experimental data published in patent publication US4665086A, “Method for minimizing disturbances in circadian rhythms of bodily performance and function” (priority 1983, dated 1987).
Several values for one entry are separate records, joined by “and”; a condition that tells them apart may be missing. Equal values may be shown once. Entries after “also recorded” stand apart in the source; their conditions may differ. Read-outs that look alike come from different tables or passages of the source.

Assays:
[1] = system: circadian rhythms in humans (jet lag); assay: Example 2: Subject A, flight Melbourne-Munster-Melbourne, melatonin at local bedtime; format: in vivo, human; details: 5 mg oral capsule
Description: |Flight from Melbourne → Munster, W. Germany → Melbourne. |Details of activity schedule, sleeping time, melatonin administration. As in Example 1, Subject A took melatonin packaged in a gelatine capsule.

[2] = system: circadian rhythms in humans (jet lag, body temperature rhythm); assay: Example 4: Subject A, round-the-world flight, melatonin with rectal temperature record (Vitalog PMS8); format: in vivo, human
Description: Subject A Flight from Melbourne→Geneva→London→Chapel Hill, N.C.→Melbourne 18.9.83-30.9.83. […] During this experiment use was made of a portable Vitalog PMS8 mini computer to record the temperature of Subject A. The Vitalog PMS8 recorded body temperature at ten minute intervals utilizing a rectal temperature probe. […] A discussion of the temperature record follows. During this flight Subject A wore the Vitalog PMS8 mini computer and rectal probe for the continuous recording of their deep body temperature. The equipment malfunctioned after 4 days due to premature battery failure. From 18.9.83- 23.9.83 Subject A kept a detailed daily log of quality and nature of sleep, modd, and alertness according to a technique developed by NASA. […] The dark, dotted regions represent dark periods. The time scale is for Melbourne time no matter where Subject A is identified by one of the letters A, B, C, D or E. Recordings of dark periods B, C and D have been repeated to give continuity to the record. The black arrows identify the times of administration of melatonin.

[3] = system: circadian rhythms in humans (jet lag); format: in vivo, human
Protocol: Subject D Flight from Melbourne→London→Edinburgh→London→Melbourne 23.3.84-2.4.84 The subject, a Clinical Professor who had never taken Melatonin before, was given gelatin capsules containing 5 mg Melatonin and instructed to take one capsule on going to bed in the evening (local time) after arrival at their destination, and to take a further capsule if they awoke in the night.

[4] = system: circadian rhythms in humans (jet lag); assay: Example 8: Subject E, flight London-Melbourne; format: in vivo, human; details: 5 mg at bedtime; for symptoms of jet-lag: Easterly flight London-Melbourne
Description: Subject E Flight from London→Melbourne→London 30.12.83-16.1.84

[5] = system: free-running circadian activity rhythm of rats; details: pharmacological doses, only when given at onset of spontaneous activity; cited from earlier work
human subjects = details: pharmacological doses; cited from earlier work
depressed patients = details: cited from earlier work

## COc1ccc2[nH]cc(CCNC(C)=O)c2c1 [melatonin, 5-methoxy-N-acetyltryptamine]
[1]
  sleep after taking melatonin (diary, comment): sleep well following both Westerly and Easterly flights
[1]; 8-hour time zone change
  symptoms of jet lag (comment): no symptoms of jet lag apart from tiredness on the second day after their return to Melbourne
[1]; listed as Melatonin
  feeling on awakening / during day after melatonin sleep (diary): Felt fresh and rested, much less tired; also recorded: feeling excellent; also recorded: feeling fine; also recorded: feeling good; also recorded: felt fresh and rested; also recorded: Felt tired during the day; also recorded: hangover
  sleep after taking melatonin (diary, comment): fell asleep; also recorded: slept deeply; also recorded: good sleep; also recorded: slept very well; also recorded: slept well
[2]; 5 mg oral, listed as Melatonin
  feeling on awakening / during day after melatonin sleep (diary): feeling excellent; also recorded: feeling drowsy, slight headache; also recorded: feeling fine; also recorded: feeling good; also recorded: Felt fine; also recorded: tired and sleepy and cold; also recorded: Felt very sleepy, but this soon passed
  sleep after taking melatonin (diary): Fell asleep at once; also recorded: Did not fall asleep; also recorded: half an hour; also recorded: slept soundly
  time to fall asleep after taking melatonin (diary): 30 min and 25 min
[2]; 5 mg oral, round-the-world flight in Westerly direction
  subjective symptoms of jet-lag (comment): no subjective symptoms of jet-lag
[2]; after arrival in Geneva, rectal probe
  time of maximal body temperatures: around midnight Melbourne time
[2]; rectal temperature, after arrival in Geneva, FIG. 1
  re-entrainment of body temperature rhythm: re-entrained extremely rapidly to Geneva time
[2]; third and fourth sleep periods in Geneva, rectal probe
  time of lowest body temperatures: around mid-day Melbourne time
[3]; Subject D, 5 mg (5+5 mg on Bombay-London leg), listed as Melatonin
  sleep after taking melatonin: did not induce sleep when taken on the outward journey
[3]; Subject D, much less than when using Mogadon
  napping during daytime meeting talks: napped minimally
[3]; human, in vivo
  effects of discontinuing melatonin: no adverse effects
[4]
  sleep after taking melatonin: slept well
  symptoms of jet-lag: no signs of jet-lag on the 3rd day
[4]; listed as Melatonin
  symptoms of jet-lag: no symptoms of jet-lag; also recorded: appeared to prevent all symptoms of jet-lag
  sleep after taking melatonin: excellent night's sleep
[5]
  entrainment of free-running circadian activity rhythm: could entrain the free-running circadian activity rhythm of rats
Human subjects
  effect on sleep: induces drowsiness and sleep
Depressed patients
  effect on symptoms of depressed patients: exacerbation of symptoms including florid psychotic episodes
